{
  "source": "patent US20090286750A1",
  "about": "“USE OF RIBOSE IN LESSENING THE CLINICAL SYMPTOMS OF ABERRANT FIRING OF NEURONS” (priority 2008, published 2009)",
  "key": {"[1]": {"conditions": "regardless of the measured serum level of D-Ribose; cited from earlier work"}, "[2]": {"test_system": "two familial males with RLS", "assay": "Restless Legs Syndrome case study, oral D-ribose at three dosing regimens", "format": "in vivo, human", "from_the_text": "We present a report on two familial males with RLS in which the supplementation of D-ribose produced a benefit in lessening the occurrence and severity of their daily symptoms. Both affected male individuals were from a positive family prevalence, three generations carrying the diagnosis of RLS. These males involved the latter two generations, parent and child, respectively. Both men had no underlying medical conditions. Their symptoms of RLS date back for decades and presently have progressed to the moderate to severe discomfort stage, mainly experienced during sedentary periods throughout the day with exacerbation of symptoms during nocturnal sleep. Both individuals were introduced to D-ribose. To evaluate any potential benefits of D-ribose in RLS, each individual orally consumed D-ribose (five grams per dose) daily at different trial dosing regimens. Each trial dosing regimen lasted for three weeks with a two week interval washout between dosing regimens. The initial regimen involved a single dose of oral D-ribose consumed only at breakfast. The second dosing regimen involved consumption of oral D-ribose at breakfast and lunch. In the last dosing regiment, oral D-ribose was taken with all meals, breakfast, lunch and dinner. A diary pertaining to the documentation and severity of RLS symptoms was compiled. The two week washout period between stages was designed to observe any return or worsening of their symptoms. […] Following completion of all dosing regimens of oral D-ribose and with the final wash out period, both males elected to re-start oral dosing of D-ribose at 5 grams/doses three times a day."}, "[3]": {"conditions": "cited from earlier work"}, "[4]": {"assay": "Serum D-Ribose levels and half life after infusion or oral administration", "format": "in vivo, human", "method": "D-Ribose is found at low levels in the diet and normal serum levels are approximately 2 mg/dl. […] When infused for short periods at the concentrations of 60 mg/kg and 100 mg/kg, D-Ribose levels in the serum rose, in each case, to approximately 25 mg/dl. These doses of D-Ribose, for a 60 kilogram man, are 3.6 and 5 grams, respectively. Doses for larger or smaller size humans can be calculated based on their mass, and are typically 1 to 10 grams. […] Intravenous administration of high doses of D-Ribose can elevate the serum levels to as high as 60 mg/dl, while a further increase in dose to 222.2 mg/kg can produce a serum level as high as 86 mg/dl. See, for example, Gross et al., Klinische Wochenschrift (1991) 69:31-36.\nSerum D-ribose levels should be maintained long enough to establish an effect that will persist after the serum D-ribose level is back to baseline levels. […] Typically, approximately a third of the cardiac output is used to supply energy to the brain."}, "[5]": {"test_system": "two familial males with RLS", "conditions": "oral dosage below eight grams at a time, no more often than every two hours; cited from earlier work"}, "[6]": {"conditions": "oral 5 g at breakfast and lunch, three weeks"}, "[7]": {"conditions": "oral 5 g at breakfast, lunch and dinner, three weeks"}, "[8]": {"conditions": "oral 5 g, single dose at breakfast, three weeks"}},
  "note": "Where two headings read alike, the source gives them in different places.",
  "data": [
    {"smiles": "O=C[C@H](O)[C@H](O)[C@H](O)CO", "note": "[D-Ribose]", "values": [
      {"measurement": "decline in serum glucose, ultimate lower level", "setting": "[1]", "result": 25, "unit": "%"},
      {"measurement": "washout complete after ceasing D-ribose supplementation", "setting": "[2]; RLS study", "result": 48, "unit": "h"},
      {"measurement": "leg twitching events and urge to move during the day", "setting": "[2]; [6]", "result": "reduced for one of the subjects and rarely present in the other"},
      {"measurement": "nocturnal symptoms", "setting": "[2]; [6]", "result": "still experienced the unpleasant sensations during the night"},
      {"measurement": "diurnal symptoms", "setting": "[2]; [7]", "result": "total elimination"},
      {"measurement": "nocturnal symptoms", "setting": "[2]; [7]", "result": "of a much lesser degree and had a later occurrence"},
      {"measurement": "general feeling (energy, fatigue)", "setting": "[2]; [8]", "result": "more energy and less fatigue"},
      {"measurement": "symptoms of RLS", "setting": "[2]; [8]", "result": "without any significant changes"},
      {"measurement": "adverse reactions", "setting": "[2]; oral 5 grams/dose three times a day", "result": "without any adverse reactions"},
      {"measurement": "severity and onset of symptoms affecting quality of life", "setting": "[2]; re-started oral 5 grams/dose three times a day", "result": "substantially improved"},
      {"measurement": "time to return of clinical RLS symptoms after cessation of oral D-ribose", "setting": "[2]; washout period", "result": "≤ 48", "unit": "h"},
      {"measurement": "normal serum levels of D-Ribose", "setting": "[3]; baseline, from diet", "result": "approximately 2 mg/dl"},
      {"measurement": "D-Ribose level in the serum", "setting": "[3]; infused for short periods at 60 mg/kg", "result": "approximately 25 mg/dl"},
      {"measurement": "D-Ribose level in the serum", "setting": "[3]; infused for short periods at 100 mg/kg", "result": "approximately 25 mg/dl"},
      {"measurement": "half life of D-Ribose in the serum", "setting": "[3]; infusion 60 mg/kg", "result": 11, "unit": "min"},
      {"measurement": "half life of D-Ribose in the serum", "setting": "[3]; infusion 100 mg/kg", "result": 16, "unit": "min"},
      {"measurement": "serum D-Ribose level", "setting": "[3]; intravenous administration of high doses", "result": "≤ 60", "unit": "mg/dL"},
      {"measurement": "serum D-Ribose level", "setting": "[3]; intravenous, further increase in dose to 222.2 mg/kg", "result": "≤ 86", "unit": "mg/dL"},
      {"measurement": "serum D-Ribose level", "setting": "[3]; oral, four hours of 83.2 mg/kg per hour", "result": 29.25, "unit": "mg/dL"},
      {"measurement": "serum D-Ribose level", "setting": "[3]; oral, four hours of 166.7 mg/kg per hour", "result": 35, "unit": "mg/dL"},
      {"measurement": "time for serum D-Ribose levels to drop to near baseline of two mg/dl", "setting": "[4]; at a 15 minute half life", "result": "within an hour"},
      {"measurement": "half-life", "setting": "[4]; human, serum, assumed from the above oral pharmacokinetic information", "result": 15, "unit": "min"},
      {"measurement": "side effects", "setting": "[5]", "result": "no side effects"}
    ]}
  ]
}
